Assay results taken from patent US12281149B2, “Modulators of G-protein coupled receptors” (priority 2021, dated 2025).

Assays:
Type in all cases: cell-based
[1] = target: T1, GIP receptor (Homo sapiens, UniProt P48546); experiment: HitHunter cAMP assay, GIP receptor; conditions: for EC50: CHO cells stably expressing GIP receptor, cAMP accumulation, 30 min, read-out: EC50 GIP-1R; for Emax: CHO cells, cAMP, normalized to maximum signal from GIP (high) and DMSO (low), read-out: Emax GIP-1R
T1 sequence (P48546 22-466): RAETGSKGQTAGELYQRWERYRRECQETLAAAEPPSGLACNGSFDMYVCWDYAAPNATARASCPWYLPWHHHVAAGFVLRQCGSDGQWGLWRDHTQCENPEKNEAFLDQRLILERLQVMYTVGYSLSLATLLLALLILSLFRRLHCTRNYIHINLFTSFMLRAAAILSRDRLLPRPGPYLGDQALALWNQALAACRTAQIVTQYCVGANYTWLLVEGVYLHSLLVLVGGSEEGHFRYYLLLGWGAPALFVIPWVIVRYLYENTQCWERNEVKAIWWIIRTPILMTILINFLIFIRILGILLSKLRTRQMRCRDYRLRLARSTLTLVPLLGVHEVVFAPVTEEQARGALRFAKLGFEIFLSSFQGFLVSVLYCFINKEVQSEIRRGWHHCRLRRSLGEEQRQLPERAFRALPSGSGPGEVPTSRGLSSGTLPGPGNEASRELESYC

[2] = target: T1, GIP receptor; experiment: PathHunter β-arrestin assay, GIP receptor; set-up: host or cells: PathHunter CHO-K1 GIPR β-Arrestin Cell Line; conditions: β-arrestin-2 recruitment, PathHunter CHO-K1 GIPR β-Arrestin Cell Line, 90 min at 37° C.; normalized to GIP; read-out: GIPR β Arrestin EC50
[3] = target: T2, GLP-1 receptor (Homo sapiens, UniProt P43220); experiment: HitHunter cAMP assay, GLP-1 receptor; conditions: for EC50: CHO cells stably expressing human GLP-1 receptor, cAMP accumulation, 30 min, read-out: EC50 GLP-1R; for Emax: CHO cells, cAMP, normalized to maximum signal from GLP-1 (high) and DMSO (low), read-out: Emax GLP-1R
[4] = target: T2, GLP-1 receptor; experiment: PathHunter β-arrestin assay, GLP-1 receptor; set-up: host or cells: PathHunter CHO-K1 GLP1R β-Arrestin Cell Line; conditions: β-arrestin-2 recruitment, PathHunter CHO-K1 GLP1R β-Arrestin Cell Line, 90 min at 37° C.; normalized to GLP-1; read-out: GLP-1R β Arrestin EC50

T2 sequence (P43220 24-463): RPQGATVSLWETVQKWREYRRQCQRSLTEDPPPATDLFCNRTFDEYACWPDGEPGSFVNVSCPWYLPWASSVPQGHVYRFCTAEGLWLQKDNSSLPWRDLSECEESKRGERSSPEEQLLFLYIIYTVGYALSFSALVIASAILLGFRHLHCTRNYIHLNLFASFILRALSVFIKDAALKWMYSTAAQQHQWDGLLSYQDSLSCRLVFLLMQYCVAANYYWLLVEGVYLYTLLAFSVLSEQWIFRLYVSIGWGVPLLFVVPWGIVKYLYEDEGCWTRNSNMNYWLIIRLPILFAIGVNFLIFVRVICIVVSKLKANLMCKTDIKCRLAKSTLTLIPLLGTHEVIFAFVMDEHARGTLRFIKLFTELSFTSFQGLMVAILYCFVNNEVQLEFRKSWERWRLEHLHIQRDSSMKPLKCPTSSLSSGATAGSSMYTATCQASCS

Row | SMILES | EC50 [1] [µM] | Emax [1] [%] | EC50 [2] [µM] | EC50 [3] [µM] | Emax [3] [%] | EC50 [4] [µM]
1 | CC[C@H](C)[C@H](NC(=O)[C@H](CO)NC(=O)[C@H](Cc1ccc(O)cc1)NC(=O)[C@H](CC(=O)O)NC(=O)[C@H](CO)NC(=O)[C@@H](NC(=O)[C@H](Cc1ccccc1)NC(=O)[C@@H](NC(=O)CNC(=O)[C@H](CCC(=O)O)NC(=O)CCNC(=O)[C@]1(c2ccccc2)CNC(=O)C1)[C@@H](C)O)[C@@H](C)O)C(=O)N[C@@H](Cc1ccc(O)cc1)C(=O)N[C@@H](CC(C)C)C(=O)N[C@@H](CC(=O)O)C(=O)N[C@@H](CCCCN)C(=O)N[C@@H](CCCCNC(=O)COCCOCCNC(=O)COCCOCCNC(=O)CC[C@H](NC(=O)CCCCCCCCCCCCCCCCCCC(=O)O)C(=O)O)C(=O)N[C@@H](C)C(=O)N[C@@H](C)C(=O)NC(C)(C)C(=O)N[C@@H](CCC(=O)O)C(=O)N[C@@H](Cc1ccccc1)C(=O)N[C@H](C(=O)N[C@@H](CC(N)=O)C(=O)N[C@@H](Cc1c[nH]c2ccccc12)C(=O)N[C@@H](CC(C)C)C(=O)N[C@@H](CC(C)C)C(=O)N[C@@H](C)C(=O)NCC(=O)NCC(=O)N1CCC[C@H]1C(=O)N[C@@H](CO)C(=O)N[C@@H](CO)C(=O)NCC(=O)N[C@@H](C)C(=O)N1CCC[C@H]1C(=O)N1CCC[C@H]1C(=O)N1CCC[C@H]1C(=O)N[C@@H](CO)C(N)=O)C(C)C (single isomer, unassigned) [Compound 113] | 0.001 to 0.01 | 98 | > 1 | 0.0001 to 0.001 | 112 | > 1
2 | CC[C@H](C)[C@H](NC(=O)[C@H](CO)NC(=O)[C@H](CCCCNC(=O)COCCOCCNC(=O)COCCOCCNC(=O)CC[C@H](NC(=O)CCCCCCCCCCCCCCCCCCC(=O)O)C(=O)O)NC(=O)[C@H](CC(=O)O)NC(=O)[C@H](CO)NC(=O)[C@@H](NC(=O)[C@H](Cc1ccccc1)NC(=O)[C@@H](NC(=O)CNC(=O)[C@H](CCC(=O)O)NC(=O)CCNC(=O)[C@@]1(c2ccccc2)CNC(=O)C1)[C@@H](C)O)[C@@H](C)O)C(=O)N[C@@H](Cc1ccc(O)cc1)C(=O)N[C@@H](CC(C)C)C(=O)N[C@@H](CC(=O)O)C(=O)N[C@@H](CCCCN)C(=O)N[C@@H](CCC(N)=O)C(=O)N[C@@H](C)C(=O)N[C@@H](C)C(=O)NC(C)(C)C(=O)N[C@@H](CCC(=O)O)C(=O)N[C@@H](Cc1ccccc1)C(=O)N[C@H](C(=O)N[C@@H](CC(N)=O)C(=O)N[C@@H](Cc1c[nH]c2ccccc12)C(=O)N[C@@H](CC(C)C)C(=O)N[C@@H](CC(C)C)C(=O)N[C@@H](C)C(=O)NCC(=O)NCC(=O)N1CCC[C@H]1C(=O)N[C@@H](CO)C(=O)N[C@@H](CO)C(=O)NCC(=O)N[C@@H](C)C(=O)N1CCC[C@H]1C(=O)N1CCC[C@H]1C(=O)N1CCC[C@H]1C(=O)N[C@@H](CO)C(N)=O)C(C)C (single isomer, unassigned) [Compound 123] | 0.01 to 0.1 | 103 | > 1 | 0.01 to 0.1 | 95 | > 1
3 | CC[C@H](C)[C@H](NC(=O)[C@H](CO)NC(=O)[C@H](Cc1ccc(O)cc1)NC(=O)[C@H](CC(=O)O)NC(=O)[C@H](CO)NC(=O)[C@@H](NC(=O)[C@H](Cc1ccccc1)NC(=O)[C@@H](NC(=O)CNC(=O)[C@H](CCC(=O)O)NC(=O)CCNC(=O)[C@@]1(c2ccccc2)CNC(=O)C1)[C@@H](C)O)[C@@H](C)O)C(=O)N[C@@H](Cc1ccc(O)cc1)C(=O)N[C@@H](CC(C)C)C(=O)N[C@@H](CC(=O)O)C(=O)N[C@@H](CCCCN)C(=O)N[C@@H](CCC(N)=O)C(=O)N[C@@H](C)C(=O)N[C@@H](C)C(=O)N[C@@H](CCCCNC(=O)COCCOCCNC(=O)COCCOCCNC(=O)CC[C@H](NC(=O)CCCCCCCCCCCCCCCCCCC(=O)O)C(=O)O)C(=O)N[C@@H](CCC(=O)O)C(=O)N[C@@H](Cc1ccccc1)C(=O)N[C@H](C(=O)N[C@@H](CC(N)=O)C(=O)N[C@@H](Cc1c[nH]c2ccccc12)C(=O)N[C@@H](CC(C)C)C(=O)N[C@@H](CC(C)C)C(=O)N[C@@H](C)C(=O)NCC(=O)NCC(=O)N1CCC[C@H]1C(=O)N[C@@H](CO)C(=O)N[C@@H](CO)C(=O)NCC(=O)N[C@@H](C)C(=O)N1CCC[C@H]1C(=O)N1CCC[C@H]1C(=O)N1CCC[C@H]1C(=O)N[C@@H](CO)C(N)=O)C(C)C (single isomer, unassigned) [Compound 124] | 0.01 to 0.1 | 102 | > 1 | 0.01 to 0.1 | 97 | > 1
4 | CC[C@H](C)[C@H](NC(=O)[C@H](CO)NC(=O)[C@H](Cc1ccc(O)cc1)NC(=O)[C@H](CC(=O)O)NC(=O)[C@H](CO)NC(=O)[C@@H](NC(=O)[C@H](Cc1ccccc1)NC(=O)[C@@H](NC(=O)CNC(=O)[C@H](CCC(=O)O)NC(=O)CCNC(=O)[C@@]1(c2ccccc2)CNC(=O)C1)[C@@H](C)O)[C@@H](C)O)C(=O)N[C@@H](Cc1ccc(O)cc1)C(=O)N[C@@H](CC(C)C)C(=O)N[C@@H](CC(=O)O)C(=O)N[C@@H](CCCCN)C(=O)N[C@@H](CCC(N)=O)C(=O)N[C@@H](C)C(=O)N[C@@H](C)C(=O)NC(C)(C)C(=O)N[C@@H](CCC(=O)O)C(=O)N[C@@H](Cc1ccccc1)C(=O)N[C@H](C(=O)N[C@@H](CC(N)=O)C(=O)N[C@@H](Cc1c[nH]c2ccccc12)C(=O)N[C@@H](CC(C)C)C(=O)N[C@@H](CC(C)C)C(=O)N[C@@H](C)C(=O)NCC(=O)NCC(=O)N1CCC[C@H]1C(=O)N[C@@H](CO)C(=O)N[C@@H](CO)C(=O)NCC(=O)N[C@@H](C)C(=O)N1CCC[C@H]1C(=O)N1CCC[C@H]1C(=O)N1CCC[C@H]1C(=O)N[C@@H](CO)C(=O)N[C@@H](CCCCNC(=O)COCCOCCNC(=O)COCCOCCNC(=O)CC[C@H](NC(=O)CCCCCCCCCCCCCCCCCCC(=O)O)C(=O)O)C(N)=O)C(C)C (single isomer, unassigned) [Compound 125] | 0.01 to 0.1 | 105 | > 1 | 0.01 to 0.1 | 101 | > 1
5 | CC[C@H](C)[C@H](NC(=O)[C@H](CO)NC(=O)[C@H](Cc1ccc(O)cc1)NC(=O)[C@H](CC(=O)O)NC(=O)[C@H](CO)NC(=O)[C@@H](NC(=O)[C@H](Cc1ccccc1)NC(=O)[C@@H](NC(=O)CNC(=O)[C@H](CCC(=O)O)NC(=O)CCNC(=O)[C@]1(c2ccccc2)CNC(=O)C1)[C@@H](C)O)[C@@H](C)O)C(=O)N[C@@H](Cc1ccc(O)cc1)C(=O)N[C@@H](CC(C)C)C(=O)N[C@@H](CC(=O)O)C(=O)N[C@@H](CCCCN)C(=O)N[C@@H](CCC(N)=O)C(=O)N[C@@H](C)C(=O)N[C@@H](C)C(=O)N[C@@H](CCCCNC(=O)COCCOCCNC(=O)COCCOCCNC(=O)CC[C@H](NC(=O)CCCCCCCCCCCCCCCCCCC(=O)O)C(=O)O)C(=O)N[C@@H](CCC(=O)O)C(=O)N[C@@H](Cc1ccccc1)C(=O)N[C@H](C(=O)N[C@@H](CC(N)=O)C(=O)N[C@@H](Cc1c[nH]c2ccccc12)C(=O)N[C@@H](CC(C)C)C(=O)N[C@@H](CC(C)C)C(=O)N[C@@H](C)C(=O)NCC(=O)NCC(=O)N1CCC[C@H]1C(=O)N[C@@H](CO)C(=O)N[C@@H](CO)C(=O)NCC(=O)N[C@@H](C)C(=O)N1CCC[C@H]1C(=O)N1CCC[C@H]1C(=O)N1CCC[C@H]1C(=O)N[C@@H](CO)C(N)=O)C(C)C (single isomer, unassigned) [Compound 128] | 0.01 to 0.1 | 101 | > 1 | 0.001 to 0.01 | 99 | > 1
6 | CC[C@H](C)[C@H](NC(=O)[C@H](CO)NC(=O)[C@H](CCCCNC(=O)COCCOCCNC(=O)COCCOCCNC(=O)CC[C@H](NC(=O)CCCCCCCCCCCCCCCCCCC(=O)O)C(=O)O)NC(=O)[C@H](CC(=O)O)NC(=O)[C@H](CO)NC(=O)[C@@H](NC(=O)[C@H](Cc1ccccc1)NC(=O)[C@@H](NC(=O)CNC(=O)[C@H](CCC(=O)O)NC(=O)CCNC(=O)[C@]1(c2ccccc2)CNC(=O)C1)[C@@H](C)O)[C@@H](C)O)C(=O)N[C@@H](Cc1ccc(O)cc1)C(=O)N[C@@H](CC(C)C)C(=O)N[C@@H](CC(=O)O)C(=O)N[C@@H](CCCCN)C(=O)N[C@@H](CCC(N)=O)C(=O)N[C@@H](C)C(=O)N[C@@H](C)C(=O)NC(C)(C)C(=O)N[C@@H](CCC(=O)O)C(=O)N[C@@H](Cc1ccccc1)C(=O)N[C@H](C(=O)N[C@@H](CC(N)=O)C(=O)N[C@@H](Cc1c[nH]c2ccccc12)C(=O)N[C@@H](CC(C)C)C(=O)N[C@@H](CC(C)C)C(=O)N[C@@H](C)C(=O)NCC(=O)NCC(=O)N1CCC[C@H]1C(=O)N[C@@H](CO)C(=O)N[C@@H](CO)C(=O)NCC(=O)N[C@@H](C)C(=O)N1CCC[C@H]1C(=O)N1CCC[C@H]1C(=O)N1CCC[C@H]1C(=O)N[C@@H](CO)C(N)=O)C(C)C (single isomer, unassigned) [Compound 129] | 0.01 to 0.1 | 106 | > 1 | 0.001 to 0.01 | 108 | > 1
